Data set [1] addresses T1, TYK2-JH2 domain (Homo sapiens, UniProt P29597).
T1 construct: JAK1-JH2 domain or TYK2-JH2 domain enzyme
Nature of the data set: Binding activity test for TYK2 JH2 domain (Tb-antibody/tracer FRET). Particulars: for JAK1/TYK2 selectivity: ratio of JAK1 JH2 to TYK2 JH2 binding IC50; for IC50: read-out: TYK2 JH2 Binding IC50.

Data set [2] deals with T2, JAK1-JH2 domain (Homo sapiens, UniProt P23458).
T2 construct: JAK1-JH2 domain or TYK2-JH2 domain enzyme
Nature of the data set: Binding activity test for JAK1 JH2 domain (Tb-antibody/tracer FRET). The conditions noted are these: read-out: JAK1 JH2 Binding IC50. The procedure: Binding Activity test for JH2 domain of JAK and TYK2
75 nL DMSO for high control and low control.
For low control, add 5 μL/well assay buffer. […] After enzyme system prepared, add 5 μL of Tb-antibody solution into each wells of assay plate. […] After Tb-antibody added, also add 5 μL of tracer into the assay plate. […] Incubate for 60 mins at 25° C. firstly and then continue to incubate the plate at 4° C. overnight. Read by envision in FRET mode. The Luminescence value was recorded by a multi-label reader Envision (PerkinElmer). Inhibition Rate was calculated relative to vehicle (DMSO) treated control wells using following formula:
wherein • RLU_compound=the relative light unit of cells treated with test compounds • RLU_low control=the relative light unit of medium with DMSO only • RLU_high control=the relative light unit of cells treated with DMSO only

Data set [3] concerns TYK2 pathway. Kind of data set: IFN-γ release in NK92 cells stimulated by IL-12 (ELISA). It counts as cell-based. The conditions noted are these: Homo sapiens, IL-12 2.5 ng/mL.
Description: IFN-γ Release in NK92 Cells Stimulated by IL-12
Purpose: To evaluate the inhibition activity of TYK2 inhibitors in NK92 cells on TYK2 pathway through ELISA method.
For data set [4], the system named is pSTAT1. Nature of the data set: Phosphorylation inhibition of STAT in human whole blood (IFN-alpha stimulated, flow cytometry). The conditions noted are these: T-cell, CD3+ T cells, read-out: pSTAT1 inhibition in hWB (IC50). It is filed as cell-based. The protocol: Phosphorylation Inhibition of STAT in Human Whole Blood Testing: The inhibitory potential of test articles in human whole blood assay was evaluated by the method of flow cytometry. IFN-alpha will activate JAK1 and TYK2 kinase in T cells by binding to IFN receptors, and then lead to phosphorylation of STAT1 and STAT2. The phosphorylated STAT1 enter nuclear and promote transcription and expression of IFN-gamma. To evaluate the efficacy of TYK2i in T cells, freshly collected human whole blood will be stimulated with certain unit of human IFN-alpha (Universal Type I IFN (1MU), R&D, 11200-2) for 20 mins in incubator. After stimulation, fix cells with PhosflowTM Fix Buffer I (BD, 557870), and then collect fixed cells by centrifugation (500 g, 8 min). Wash cells once with pre-cooled PBS, and then permeabilize cells with cold Perm Buffer III buffer (BD, 558050) for 45 mins on ice. Collect cells by centrifugation (600 g, 8 min) and washed twice with cold PBS. Stain cells with anti-human CD3(FITC Mouse Anti-Human CD3, BD, 555332) and anti-pSTAT1_Y701 (Alexa Fluor 647 Mouse Anti-Stat1 ([…]), BD, 612597) antibodies. Detect pSTAT1 by flow cytometry (CytoFlex S) and analyze data with FlowJo and GraphPad Prism 8 software. IC50 values of test articles were determined using 4-parameter logistic equation.
On the technique in general: Flow cytometry measures light scatter and fluorescence of single cells or particles in a stream.

Data set [5] can be described thus: Microsomal metabolic stability assay. It is filed as in vitro ADME, human. Particulars: for microsomal CLint at 1 µM / half-life at 1 µM: human, liver microsomes, pH 7.4, human liver microsomes 0.5 mg/mL; for microsomal CLint at 1 µM: read-out: Human LM Clint; for half-life at 1 µM: read-out: Human LM T½. The protocol: Microsomal Metabolic Stability Assay
Microsomes were pre-incubated with test compound or control compounds for 5 min at 37° C. in 100 mM potassium phosphate buffer, pH 7.4, 1.0 mM EDTA. The reaction was initiated by addition of 15 μL of the NADPH regenerating system to 30 μL of each incubation mixture per time point. The final incubation condition was composed of 0.5 mg/mL microsomal protein, 1 μM test article/positive control, 2 mM NADPH. The 0-minute samples were prepared by addition of a 30 μL aliquot of each incubation mixture to 135 μL quench reagent to precipitate proteins. And then a 15 μL aliquot of the NADPH regenerating system was added. At 5, 15, 30 and 45 minutes, the reaction will be stopped by the addition of cold acetonitrile solution containing internal standard. The samples taken at all time points were centrifuged at 5000×g for 15 minutes. 50 μL of supernatant are taken into 96-well assay plates pre-added with 50 μL ultrapure water, and then analyzed by LC/MS/MS.
Concentrations of test articles, control compounds in the samples were determined by using LC/MS/MS method. Plotting of the chromatograms and peak area integrations are carried out by Analyst (AB Sciex).
In the determination of the in vitro elimination constant (ke) of the control compounds, the analyte/internal standard peak area ratios will be converted to percentage remaining (% Remaining) with the following equation:
The CLint of microsomes was calculated using the formula: CLint (mic)=0.693/T1/2/mg microsome protein per mL. The slope was measured by the natural logarithm of the percentage of the residual compound and time, T1/2 was calculated according to the following formula.

The subject of data set [6] is Ba/F3-FL-TYK2-P760L cells. Kind of data set: Anti-proliferative assay in Ba/F3-FL-TYK2-P760L cells (Cell-Titer Glo). It counts as cell-based.
Protocol: These engineered Ba/F3-FL-TYK2-P760L cells were used to monitor JAK inhibitory activities of the compounds in the cellular. […] Cells were seeded at 2000/well of white flat bottom 96-well plates. The well containing medium only was used as background control. […] The test compounds were dissolved in DMSO to a stock concentration of 20 mM. […] The final DMSO concentration was 0.1%. […] The viability was measured by cellular ATP determination using the Cell-Titer Glo luciferase reagent (Promega). The Luminescence value was recorded by a multi-label reader Envision (PerkinElmer). Inhibition Rate was calculated relative to vehicle (DMSO) treated control wells using following formula:
wherein • RLU_compound=the relative light unit of cells treated with test compounds • RLU_blank=the relative light unit of medium with DMSO only • RLU_control=the relative light unit of cells treated with DMSO only
Data set [7] is described as follows: Kinetic solubility. It counts as physicochemical. Particulars: aqueous buffer, 100 mM pH 7.4 phosphate buffer, 1% DMSO, room temperature, read-out: Kinetics Solubility_PBS7.4. The protocol: Aliquots of 8 μL of reference and test compound stock solutions (10 mM/5 mM) are added into 792 μL of 100 mM pH 7.4 phosphate buffer. The final DMSO concentration is 1%. Sample tubes are shaken for 2 hours at 1000 rpm at room temperature. Samples are centrifuged at 12000 rpm for 10 min to precipitate un-dissolved particles. And transfer the supernatants to a new tube or plate. Add 5 μL of samples (no diluted, 10 times diluted and 100 times diluted) and standard curve samples to 95 μL of ACN containing IS for LC-MS/MS analysis.

Setting [8] is: human liver microsomes 0.5 mg/mL, 1 μM.

≈ marks a conversion by molar mass, not a printed value.

T1 sequence (P29597 589-875 limits assumed): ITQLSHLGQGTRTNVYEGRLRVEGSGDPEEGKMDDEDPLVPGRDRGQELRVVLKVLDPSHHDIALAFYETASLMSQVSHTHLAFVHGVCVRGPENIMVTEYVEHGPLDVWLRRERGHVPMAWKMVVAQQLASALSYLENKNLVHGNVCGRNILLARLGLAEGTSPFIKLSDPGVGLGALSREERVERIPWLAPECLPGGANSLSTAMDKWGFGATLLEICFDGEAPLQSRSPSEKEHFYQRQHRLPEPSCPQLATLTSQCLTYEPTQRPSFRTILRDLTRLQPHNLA
T2 sequence (P23458 583-855 limits assumed): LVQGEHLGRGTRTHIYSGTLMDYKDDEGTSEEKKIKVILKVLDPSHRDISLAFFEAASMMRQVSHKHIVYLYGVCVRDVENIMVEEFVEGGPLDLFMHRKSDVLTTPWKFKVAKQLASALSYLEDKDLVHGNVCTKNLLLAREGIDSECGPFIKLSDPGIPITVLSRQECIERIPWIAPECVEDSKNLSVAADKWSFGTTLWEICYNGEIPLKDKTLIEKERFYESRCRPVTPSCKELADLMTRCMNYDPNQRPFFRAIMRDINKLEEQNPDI

`[2H]C([2H])([2H])NC(=O)c1cnc(NC(=O)C2CC2)cc1Nc1ccn2ncc(Br)c2c1OC` [Example 29, 4-((3-Bromo-4-methoxypyrazolo[1,5-a]pyridin-5-yl)amino)-6-(cyclopropanecarboxamido)-N-(methyl-d3)nicotinamide]: the JAK1/TYK2 selectivity in data set [1] was 42.0. Further, the figures for the concentration for half-maximal inhibition (IC50) in data set [1], in data set [2] and in data set [3] were 0.188 nM, 7.87 nM and 32.1 nM, respectively.

In the case of `[2H]C([2H])([2H])NC(=O)c1cnc(NC(=O)C2CC2)cc1Nc1ccc2cnn(CC(C)(F)F)c2c1OC` [Example 2, 6-(Cyclopropanecarboxamido)-4-((1-(2,2-difluoropropyl)-7-methoxy-1H-indazol-6-yl)amino)-N-(methyl-d3)nicotinamide], the IC50 (in general, the concentration needed to halve the response being measured) came to 327 nM in data set [4], 0.239 nM in data set [1] and 18.9 nM in data set [2]. For the same compound, the JAK1/TYK2 selectivity in data set [1] is on record as 78.97. Besides, the microsomal CLint at 1 µM in data set [5] stood at 53.8 µL/min/mg. In addition, in data set [5], the half-life at 1 µM was determined as 25.8 min.

As for `[2H]C([2H])([2H])NC(=O)c1cnc(NC(=O)C2CC2)cc1Nc1ncc2cnn(C(C)C(F)(F)F)c2c1OC` (stereo not shown) [Example 3, 6-(Cyclopropanecarboxamido)-4-((7-methoxy-1-(1,1,1-trifluoropropan-2-yl)-1H-pyrazolo[4,3-c]pyridin-6-yl)amino)-N-(methyl-d3)nicotinamide], in data set [1], the JAK1/TYK2 selectivity was determined as 177.55 and the half-inhibitory concentration (IC50) is 0.682 nM. Besides, in data set [5], the microsomal CLint at 1 µM was 5.8 µL/min/mg and the half-life at 1 µM came to 239 min. Further, half-maximal inhibition in data set [6] (IC50) required 164 nM. The IC50 in data set [2] was 121 nM.

For `[2H]C([2H])([2H])NC(=O)c1cnc(NC(=O)C2CC2)cc1Nc1ncn2ncc(C(C)C(F)(F)F)c2c1OC` (single isomer, unassigned) [Example 5A, (R*)-6-(Cyclopropanecarboxamido)-4((4-methoxy-3-(1,1,1-trifluoropropan-2-yl)pyrazolo[1,5-c]pyrimidin-5-yl)amino)-N-(methyl-d3)nicotinamide], in data set [1], the JAK1/TYK2 selectivity is >197.55 and the IC50 was found to be 1.51 nM. Moreover, in data set [5], the microsomal CLint at 1 µM turned out to be 57.5 µL/min/mg and the half-life at 1 µM is 24.1 min. Also, the half-maximal inhibitory concentration (IC50) in data set [6] was > 5000 nM. Also, in data set [2], the IC50 was > 298 nM.

On to `[2H]C([2H])([2H])NC(=O)c1cnc(NC(=O)C2CC2)cc1Nc1ncn2ncc(C(C)C(F)(F)F)c2c1OC` (single isomer, unassigned) [Example 5B, (S*)-6-(Cyclopropanecarboxamido)-4-((4-methoxy-3-(1,1,1-trifluoropropan-2-yl)pyrazolo[1,5-c]pyrimidin-5-yl)amino)-N-(methyl-d3)nicotinamide], for which, in data set [1], the JAK1/TYK2 selectivity is recorded as 716.05 and the IC50 amounted to 0.197 nM. In data set [5] (setting [8]), the “Human LM Clint” value came out at 47.61 µL/min/mg and the “Human LM T½” value amounted to 29.11 min. Besides, in data set [6], the IC50 came out at 62.3 nM. Also, in data set [2], the concentration for half-maximal inhibition (IC50) turned out to be 141 nM.

`[2H]C([2H])([2H])NC(=O)c1cnc(NC(=O)C2CC2)cc1Nc1ccc2ccn(CC(C)(F)F)c2c1OC` [Example 17, 6-(Cyclopropanecarboxamido)-4-((1-(2,2-difluoropropyl)-7-methoxy-1H-indol-6-yl)amino)-N-(methyl-d3)nicotinamide]: the JAK1/TYK2 selectivity in data set [1] is reported as 121.60. Moreover, the IC50 in data set [1] is 0.341 nM; in data set [2] it was 41.5 nM; in data set [3], 21.7 nM. For the same compound, the solubility kinetic at 2 h in data set [7] was 11.1 µM (≈ 5.12 µg/mL).

For the compound `[2H]C([2H])([2H])NC(=O)c1cnc(NC(=O)[C@@H]2C[C@@H]2F)cc1Nc1ncc2cnn(CC(F)(F)F)c2c1OC` [Example 9, 6-((1S,2S)-2-fluorocyclopropane-1-carboxamido)-4-((7-methoxy-1-(2,2,2-trifluoroethyl)-1H-pyrazolo[4,3-c]pyridin-6-yl)amino)-N-(methyl-d3)nicotinamide], the values for the IC50 in data set [4], in data set [1] and in data set [2] were 274 nM, 0.212 nM and 35.2 nM, respectively. The JAK1/TYK2 selectivity in data set [1] was 166.08. Besides, in data set [5], the microsomal CLint at 1 µM turned out to be 5.42 µL/min/mg. The half-life at 1 µM in data set [5] is 256 min. Moreover, the solubility kinetic at 2 h in data set [7] came out at 38.2 µM (≈ 18.5 µg/mL).

For the origin of these results see patent publication US20260284066A1, “TYK2 INHIBITORS AND COMPOSITIONS AND METHODS THEREOF” (LYNK PHARMACEUTICALS CO. LTD., priority 2023, published 2026).
